Source: patent publication US20080019909A1, “Modulation of Programmed Necrosis” (priority 2003, published 2008)
“Also recorded” adds a separate entry of the source.

Assays:
FADD -/- I42 cells = experiment: TNF cytotoxic assay (cell loss by PI exclusion on FACS), FADD -/- I42 cells; format: cell-based; details: FADD -/- I42 cells; TNF 16 hours; zVAD-fmk or GA
Procedure: Cells were stimulated with, TNF or anti-Fas antibody (CH11) for 12 hours and cell loss was analyzed on the GFP+ cells by PI exclusion on FACS.
FIG. 8F is a bar graph depicting the results of experiments in which FADD -/- I42 cells and caspase-8 -/- J3.2 cells (both are TNFR-2+) were stimulated with TNF in the presence or absence of zVAD-fmk for 16 hours.

[1] = tested on: TNFR-2+ RIP -/- Jurkat cells (R1.1); experiment: TNF cytotoxic assay (cell loss by PI exclusion on FACS), TNFR-2+ RIP -/- cells; format: cell-based; details: for TNF-induced death (cell loss): TNFR-2+ RIP -/- cells (R1.1), 10 ng/ml rhTNFα, 16 hours
From the text: The results are representative of three experiments.

RIP [2] = experiment: Western blot of RIP cleavage in TNF or anti-Fas stimulated wild-type 4E3 cells; format: cell-based; details: six hours, C-terminal specific RIP antibody
Procedure: FIG. 4A is a Western blot showing the results of experiments in which wild-type 4E3 cells (WT) and J3.2 cells (Casp-8 -/-) cells Were treated with various combinations of rhTNFα, Apo-1 (anti-Fas), and zVAD-fmk for six hours before whole cell lysates were harvested.

[3] = tested on: TNFR-2-expressing wild-type (4E3) Jurkat cells
Procedure: Cells were harvested and analyzed by PI exclusion on FACS 16 hours post-stimulation and cell loss was calculated as described in Example 1 (infra).

caspase-8 -/- J3.2 cells = experiment: TNF cytotoxic assay (cell loss by PI exclusion on FACS), caspase-8 -/- J3.2 cells; details: caspase-8 -/- J3.2 cells; rhTNF 15-16 hours; zVAD-fmk or 0.5 mM GA pretreatment
RIP [4] = experiment: Western blot of RIP protein expression in cells treated with GA; format: cell-based

Compound | TNF-induced programmed necrosis (cell loss) (FADD -/- I42 cells) | TNF-induced death (cell loss) ([1]; 50 mM zVAD-fmk or 0.5 mM GA) | TNF killing restored by K45A or RIPc, in the presence of zVAD-fmk ([1]; TNFR-2+ RIP -/- cells reconstituted with kinase inactive (K45A) RIP or RIPc) | RIP cleavage (RIP [2]) | cell viability, compound alone [3] | TNF-induced death (cell loss), zVAD-fmk plus GA together ([3]; wild-type 4E3 cells, 10 ng/ml rhTNFα with zVAD-fmk plus GA, 16 hours) | TNF-induced death (cell loss), single agent ([3]; wild-type 4E3 cells, 10 ng/ml rhTNFα, 16 hours, or 0.5 mM GA) | TNF-induced programmed necrosis (cell loss) (caspase-8 -/- J3.2 cells) | TNF-induced death (cell loss) ([1]; or 0.5 mM GA) | reduction in RIP protein level (RIP [4]) [%]
z-Val-Ala-Asp-fluoromethyl ketone [zVAD-fmk] | failed to provide any protection; also recorded: not blocked | completely inhibited | potently inhibited | potently inhibited | no effect | synergized to completely suppress | partial protective effect | failed to provide any protection; also recorded: not blocked |  | 
COC1=C2C[C@@H](C)C[C@H](OC)[C@H](O)[C@@H](C)/C=C(\C)[C@H](OC(N)=O)[C@@H](OC)/C=C\C=C(/C)C(=O)NC(=CC1=O)C2=O [geldanamycin] |  |  |  |  | no effect |  |  |  | no effect | > 90
